Experiments:
[1] = ORAC test (Oxygen Radical Absorbance Capacity); settings: fluorescence decay under peroxyl radical flow; Trolox as reference standard
Source text: ORAC Test The ORAC method (Oxygen Radical Absorbance Capacity) is one of the most common methods for determining radical trapping capacity against peroxyl radicals. The principle of the test is based on the measurement of the decrease in the fluorescence intensity of a fluorescent target molecule (for example fluorescein), under a constant flow of peroxyl radicals, generated by the thermal decomposition of an azo compound. The results are expressed as equivalent Trolox® micromoles, using this compound as the reference standard.

[2] = DPPH test (antioxidant power); settings: decrease of DPPH radical peak at 517 nm, spectrophotometry
Method: DPPH Test The DPPH test allows determining the antioxidant power by reacting the sample to be analyzed with a solution of DPPH [2,2-diphenyl-1-picrylhydrazyl, PM 394.33, […]] and analyzing the decrease in the peak at 517 of the DPPH^• radical at UV. Antioxidant compounds which are capable of transferring a hydrogen atom to the radical cause a loss of absorbance of the solution. The decrease of the DPPH^• radical peak at 517 nm is then analyzed by spectrophotometry after a predetermined incubation time. This decrease (discoloration) is proportional to the antioxidant load present in the sample. The results can also be expressed as IC50, i.e., the concentration of antioxidant compound which causes an initial 50% decrease in DPPH^•.

Structure (SMILES): O=C1O[C@H]([C@@H](O)CO)C(O)=C1O [Ascorbic acid]
- ORAC [1]: 2900 ± 310 μmol Trolox ® equivalent/g of sample
- DPPH IC50 [2]: 7.196 ± 0.852 µg/mL
